Patent US4029780A, “3-Piperazinyl 1,2,4-benzothiadiazine 1,1-dioxide derivatives their compositions and method of use” (Dainippon Pharmaceutical Co., Ltd., priority 1974, dated 1977)
Values belong to the compound of their own block, whether it stands above or below them.

What was measured:
[1] = literature, cited from earlier work
[2] = literature; cited from earlier work
[3] = test system: Spontaneously hypertensive male rats; assay: Antihypertensive activity in spontaneously hypertensive rats (oral, 10 successive days); type: in vivo, rat; conditions: for Fall in blood pressure / Blood pressure: 10 mg/kg/day p.o.
Experimental: Spontaneously hypertensive male rats [SHR, Jap. Circ. J. 27, 282-93 (1963)] being 18-23 weeks of age and having systolic blood pressure levels of 170-190 mmHg were used. The test compounds were each suspended in a 0.5% aqueous tragacanth solution and administered orally in a dose of 10 mg/kg/day by stomach tube to SHR once a day for 10 successive days. The blood pressure of conscious SHR was measured prior to dosing and 5 hours after administration. It was also measured once daily over a period of 7 days after the end of the treatment period. The measurement of the blood pressure was made by a plethysmographtail method [Jap. Circ. J. 27, 282-93 (1963)].

[4] = test system: Male Wistar rats; assay: Effect on urine volume and electrolyte excretion; type: in vivo, rat; conditions: for Cl- / K+ / Na+ / Na+/K+: urinary excretion over 5 hours; for Urine volume: 5 hours
Experimental: Male Wistar rats weighing 220 to 260 g were used. Each test compound was suspended in a solution of tragacanth dissolved in a concentration of 0.5% in a 0.9% saline solution so that the volume of the resulting suspension to be administered would be always 25 ml/Kg. The test compounds were administered orally by the stomach tube to the animals at the prescribed doses. The animals were then placed in a metabolic cage and the urine was collected over a period of 5 hours. The total amount of sodium, potassium and chloride excreted was determined by Auto-Analyzer, made by Technicon Instruments Corporation.

[5] = test system: Male Wistar rats; assay: Effect on blood glucose (a), oral; conditions: 300 mg/kg p.o.; for Effect on blood glucose level: rats
Experimental: (a) Male Wistar rats weighing 190-210 g were used. Each test compound was suspended in a concentration of 150 mg/ml in a 0.5% aqueous tragacanth solution and orally administered at a dose of 300 mg/kg by the stomach tube.

[6] = test system: Male Wistar rats; assay: Effect on blood glucose (b), intraperitoneal; conditions: 300 mg/kg i.p.; for Effect on blood glucose level: rats
Experimental: (b) Male Wistar rats weighing 260-285 g were used. […] 4 ml/kg of the above solution of each test compound was intraperitoneally administered to each animal. The blood samples were taken prior to dosing and 1, 3 and 6 hours after the administration and the plasma glucose levels were determined in a similar manner to that described in (a).

[7] = Toxicity (LD50), JCL-SD rats; conditions: rat, in vivo
Description: (§1) Male and female JCL-ICR strain mice, weighing 20-30 g (each group: 8 mice), and male and female JCL-SD strain rats, weighing 150-250 g (each group: 8 rats) were used.

[8] = Toxicity (LD50), JCL-ICR mice; conditions: mouse, in vivo
Description: as §1

[9] = test system: Spontaneously hypertensive rats; assay: Glucose tolerance test; conditions: 300 mg/kg p.o. once a day, 22 days; 1.25 g/kg oral glucose
Experimental: Spontaneously hypertensive rats weighing 360 to 400 g were used. Each of the test compounds was suspended in a 0.5% aqueous tragacanth solution, and orally administered to the animals at a dose of 300 mg/kg once a day for 22 consecutive days. The control group was given only the 0.5% aqueous tragacanth solution. After the final administration, the animals were caused to fast for 20 hours, and subjected to a glucose tolerance test by an oral application of 1.25 g/kg of glucose.

[10] = day 0, 5 hours after administration
[11] = day 2, 5 hours after administration
[12] = day 4, 5 hours after administration
[13] = day 6, 5 hours after administration
[14] = day 8, 5 hours after administration
[15] = day 10, 24 hours after the final treatment
[16] = day 14, 120 hours after the final treatment
[17] = iv, female, dissolved with stoichiometric NaOH, 95% confidence limits in parentheses
[18] = iv, male, dissolved with stoichiometric NaOH, 95% confidence limits in parentheses
[19] = po, female, suspended in 0.5% tragacanth
[20] = po, male, suspended in 0.5% tragacanth
[21] = sc, female, dissolved with stoichiometric NaOH
[22] = sc, male, dissolved with stoichiometric NaOH

Structure (SMILES): O=S1(=O)NC(N2CCOCC2)=Nc2cc(C(F)(F)F)ccc21 [3-morpholino-6-trifluoromethyl-2H-1,2,4-benzothiadiazine 1,1-dioxide]
- Antihypertensive activity [1]: no antihypertensive activity

Structure (SMILES): NC1=Nc2cc(C(F)(F)F)ccc2S(=O)(=O)N1 [6-trifluoromethyl-3-amino-2H-1,2,4-benzothiadiazine 1,1-dioxide]
- Antihypertensive activity [1]: substantially the same degree of antihypertensive activity as diazoxide
- Antidiuretic activity [2]: antidiuretic activity similar to that of diazoxide

Structure (SMILES): COc1cc2c(cc1OC)S(=O)(=O)NC(N1CCN(C)CC1)=N2 [Compound 1, 6,7-Dimethoxy-3-(4-methyl-1-piperazinyl)-2H-1,2,4-benzothiadiazine 1,1-dioxide]
- Fall in blood pressure [3]: did not cause any significant fall in blood pressure
- Blood pressure [3, 10]: 188 mm Hg
- Blood pressure ([3]; day 0, prior to dosing (0)): 189 mm Hg
- Blood pressure [3, 11]: 186 mm Hg
- Blood pressure ([3]; day 2, prior to dosing (0)): 187 mm Hg
- Blood pressure [3, 12]: 184 mm Hg
- Blood pressure ([3]; day 4, prior to dosing (0)): 185 mm Hg
- Blood pressure [3, 13]: 184 mm Hg
- Blood pressure ([3]; day 6, prior to dosing (0)): 187 mm Hg
- Blood pressure [3, 14]: 187 mm Hg
- Blood pressure ([3]; day 8, prior to dosing (0)): 189 mm Hg
- Blood pressure [3, 15]: 187 mm Hg
- Blood pressure [3, 16]: 188 mm Hg
- Antihypertensive activity [1]: no antihypertensive activity

Structure (SMILES): O=S1(=O)NC(N2CCCCC2)=Nc2ccccc21 [Compound 2, 3-Piperidino-2H-1,2,4-benzothiadiazine 1,1-dioxide]
- Fall in blood pressure [3]: did not cause any significant fall in blood pressure
- Blood pressure [3, 10]: 180 mm Hg
- Blood pressure ([3]; day 0, prior to dosing (0)): 187 mm Hg
- Blood pressure [3, 11]: 181 mm Hg
- Blood pressure ([3]; day 2, prior to dosing (0)): 186 mm Hg
- Blood pressure [3, 12]: 183 mm Hg
- Blood pressure ([3]; day 4, prior to dosing (0)): 182 mm Hg
- Blood pressure [3, 13]: 186 mm Hg
- Blood pressure ([3]; day 6, prior to dosing (0)): 186 mm Hg
- Blood pressure [3, 14]: 183 mm Hg
- Blood pressure ([3]; day 8, prior to dosing (0)): 186 mm Hg
- Blood pressure [3, 15]: 184 mm Hg
- Blood pressure [3, 16]: 182 mm Hg
- Antihypertensive activity in oral administration ([3]; oral): does not show antihypertensive activity
- Antihypertensive activity in intravenous administration ([1]; intravenous): slight antihypertensive activity

Structure (SMILES): NS(=O)(=O)c1cc2c(cc1Cl)NCNS2(=O)=O [Compound 4, Hydrochlorothiazide]
- Blood pressure [3, 10]: 168 mm Hg
- Blood pressure ([3]; day 0, prior to dosing (0)): 172 mm Hg
- Blood pressure [3, 11]: 152 mm Hg
- Blood pressure ([3]; day 2, prior to dosing (0)): 163 mm Hg
- Blood pressure [3, 12]: 150 mm Hg
- Blood pressure ([3]; day 4, prior to dosing (0)): 158 mm Hg
- Blood pressure [3, 13]: 138 mm Hg
- Blood pressure ([3]; day 6, prior to dosing (0)): 151 mm Hg
- Blood pressure [3, 14]: 140 mm Hg
- Blood pressure ([3]; day 8, prior to dosing (0)): 152 mm Hg
- Blood pressure [3, 15]: 153 mm Hg
- Blood pressure [3, 16]: 165 mm Hg
- Change in Na+/K+ ([4]; 1 mg/kg p.o.): marked increase
- Cl- ([4]; 1.0 mg/kg p.o.): 1.38 mEq
- Blood glucose ([5]; 0 hr (prior to dosing)): 104 mg/dL
- Blood glucose ([5]; 1 hr): 114 mg/dL
- Blood glucose ([5]; 3 hr): 111 mg/dL
- Blood glucose ([5]; 6 hr): 112 mg/dL
- Blood glucose ([5]; 10 hr): 113 mg/dL
- Blood glucose ([6]; 0 hr (prior to dosing)): 100 mg/dL
- Blood glucose ([6]; 1 hr): 257 mg/dL
- Blood glucose ([6]; 3 hr): 220 mg/dL
- Blood glucose ([6]; 6 hr): 144 mg/dL

Structure (SMILES): CN1CCN(C2=Nc3ccc(Cl)cc3S(=O)(=O)N2)CC1 [Compound A, 7-chloro-3-(4-methyl-1-piperazinyl)-2H-1,2,4-benzothiadiazine 1,1-dioxide]
- Blood pressure [3, 10]: 172 mm Hg
- Blood pressure ([3]; day 0, prior to dosing (0)): 172 mm Hg
- Blood pressure [3, 11]: 155 mm Hg
- Blood pressure ([3]; day 2, prior to dosing (0)): 167 mm Hg
- Blood pressure [3, 12]: 151 mm Hg
- Blood pressure ([3]; day 4, prior to dosing (0)): 158 mm Hg
- Blood pressure [3, 13]: 131 mm Hg
- Blood pressure ([3]; day 6, prior to dosing (0)): 144 mm Hg
- Blood pressure [3, 14]: 135 mm Hg
- Blood pressure ([3]; day 8, prior to dosing (0)): 143 mm Hg
- Blood pressure [3, 15]: 139 mm Hg
- Blood pressure [3, 16]: 165 mm Hg
- Change in Na+/K+ ([4]; 100 mg/kg p.o.): some increase
- Change in electrolyte excretion ([4]; 100 mg/kg p.o.): no significant change
- Change in urine volume ([4]; 100 mg/kg p.o.): no significant change
- Urine volume ([4]; 100 mg/kg p.o.): 3.58 mL
- Cl- ([4]; 100 mg/kg p.o.): 0.90 mEq
- K+ ([4]; 100 mg/kg p.o.): 0.40 mEq
- Na+ ([4]; 100 mg/kg p.o.): 0.78 mEq
- Na+/K+ ([4]; 100 mg/kg p.o.): 1.93
- LD50 at 168 h [7, 17]: 740 mg/kg
- LD50 at 168 h [7, 18]: 551 mg/kg
- LD50 at 168 h [7, 19]: > 5000 mg/kg
- LD50 at 168 h [7, 20]: > 5000 mg/kg
- LD50 at 168 h [7, 21]: > 1000 mg/kg
- LD50 at 168 h [7, 22]: > 1000 mg/kg
- LD50 at 168 h [8, 17]: 242 mg/kg
- LD50 at 168 h [8, 18]: 267 mg/kg
- LD50 at 168 h [8, 19]: > 5000 mg/kg
- LD50 at 168 h [8, 20]: > 5000 mg/kg
- LD50 at 168 h [8, 21]: > 2410 mg/kg
- LD50 at 168 h [8, 22]: > 2410 mg/kg
- Blood glucose levels after application of glucose, compared with control group [9]: same glucose tolerance pattern as the control group
- Glucose tolerance [9]: no abnormality was observed in glucose tolerance
- Blood glucose ([5]; 0 hr (prior to dosing)): 105 mg/dL
- Blood glucose ([5]; 1 hr): 105 mg/dL
- Blood glucose ([5]; 3 hr): 107 mg/dL
- Blood glucose ([5]; 6 hr): 103 mg/dL
- Blood glucose ([5]; 10 hr): 110 mg/dL
- Effect on blood glucose level [5]: substantially no effect
- Blood glucose ([6]; 0 hr (prior to dosing)): 94 mg/dL
- Blood glucose ([6]; 1 hr): 102 mg/dL
- Blood glucose ([6]; 3 hr): 103 mg/dL
- Blood glucose ([6]; 6 hr): 111 mg/dL
- Effect on blood glucose level [6]: substantially no effect

- Change in electrolyte excretion ([4]; 100 mg/kg p.o.): no significant change
- Change in urine volume ([4]; 100 mg/kg p.o.): no significant change
- Urine volume ([4]; 100 mg/kg p.o.): 3.06 mL
- Cl- ([4]; 100 mg/kg p.o.): 0.89 mEq
- K+ ([4]; 100 mg/kg p.o.): 0.48 mEq
- Na+ ([4]; 100 mg/kg p.o.): 0.64 mEq
- Na+/K+ ([4]; 100 mg/kg p.o.): 1.34
- Blood glucose ([5]; 0 hr (prior to dosing)): 106 mg/dL
- Blood glucose ([5]; 1 hr): 107 mg/dL
- Blood glucose ([5]; 3 hr): 109 mg/dL
- Blood glucose ([5]; 6 hr): 104 mg/dL
- Blood glucose ([5]; 10 hr): 110 mg/dL
- Effect on blood glucose level [5]: substantially no effect
- Blood glucose ([6]; 0 hr (prior to dosing)): 100 mg/dL
- Blood glucose ([6]; 1 hr): 111 mg/dL
- Blood glucose ([6]; 3 hr): 115 mg/dL
- Blood glucose ([6]; 6 hr): 125 mg/dL
- Effect on blood glucose level [6]: substantially no effect
Structure (SMILES): CN1CCN(C2=Nc3ccccc3S(=O)(=O)N2)CC1 [Compound B, 3-(4-methyl-1-piperazinyl)-2H-1,2,4-benzothiadiazine 1,1-dioxide]
- Blood pressure [3, 10]: 167 mm Hg
- Blood pressure ([3]; day 0, prior to dosing (0)): 169 mm Hg
- Blood pressure [3, 11]: 161 mm Hg
- Blood pressure ([3]; day 2, prior to dosing (0)): 167 mm Hg
- Blood pressure [3, 12]: 154 mm Hg
- Blood pressure ([3]; day 4, prior to dosing (0)): 159 mm Hg
- Blood pressure [3, 13]: 144 mm Hg
- Blood pressure ([3]; day 6, prior to dosing (0)): 160 mm Hg
- Blood pressure [3, 14]: 136 mm Hg
- Blood pressure ([3]; day 8, prior to dosing (0)): 149 mm Hg
- Blood pressure [3, 15]: 146 mm Hg
- Blood pressure [3, 16]: 166 mm Hg
